Measured values as given in paper PMC11440508, “Dually Labeled Neurotensin NTS1R Ligands for Probing Radiochemical and Fluorescence-Based Binding Assays” (Journal of Medicinal Chemistry, 2024).

Test: Radiochemical purity after storage (RP-HPLC)
Type: physicochemical
Conditions: stock solution, degradation by radiolysis
Experimental: Figure 2 (A) Radiochemical purities (>99%) of [^3H]13 and [^3H]18 directly after synthesis determined by RP-HPLC analysis. (B) Radiochemical purities of [^3H]13 and [^3H]18 determined 11 months after synthesis. The purities amounted to 92% ([^3H]13) and 80% ([^3H]18).
Over a period of 11 months, degradation of both dually labeled ligands by radiolysis was low (Figure 2B).
A solution of succinimidyl [^3H]propionate (molar activity: 3.89 TBq/mmol, purchased from Novandi, Södertälje, Sweden) (55.5 MBq, 0.75 mL, 14.3 nmol) in n-heptane/EtOAc 3:2 v/v was transferred from the delivered ampule into a 1.5 mL polypropylene reaction vessel with screw cap, and the solvent was removed in a vacuum concentrator (30 °C, ca. 30 min). […] To quantify the activity of the two radioligands and to determine the molar concentration, 2 × 2 μL of the preliminary stock solution were added to 998 μL of DMSO/H2O 3:7 v/v, and 4 × 10 μL of these dilutions were counted in 3 mL of liquid scintillator (Rotiscint Eco Plus, Carl Roth, Karlsruhe, Germany) with a Tri-Carb 3100TR liquid scintillation counter (PerkinElmer). […] The molar activity of the labeling reagent succinimidyl [^3H]propionate was determined by liquid chromatography–mass spectrometry (LC-MS) analysis. Coinjection of “cold” succinimidyl propionate allowed the quantification of the incorporated tritium (Novandi, Södertälje, Sweden). […]

**Q.** With CCC(=O)NCCCCNC(=O)NC(=N)NCCC[C@H](NC(=O)[C@@H]1CCCN1C(=O)[C@@H](NC(=O)CCc1cn(CCCNC(=O)c2ccc(-c3c4ccc(=[N+](C)C)cc-4oc4cc(N(C)C)ccc34)c(C(=O)[O-])c2)nn1)C1CCNCC1)C(=O)N[C@@H](CCCNC(=N)N)C(=O)N1CCC[C@H]1C(=O)N[C@@H](Cc1ccc(O)cc1)C(=O)N[C@H](C(=O)N[C@@H](CC(C)C)C(=O)O)[C@@H](C)CC [[^3H]13] as the molecule, how does the “Radiochemical purity 11 months after synthesis” value read?
**A.** 92%
